Patent US20060069132A1, “Azolecarboxamide herbicides” (priority 2004, published 2006)

Tests used:
corn = experiment: Test B pre-/postemergence herbicide test; format: in vivo, Zea mays; conditions: for Plant response rating (0 to 100 scale), Corn: 0 is no effect, preemergence; for Corn plant response rating: postemergence
How it was run: (§1)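 Visual rating, 0 (no effect) to 100 (complete control), versus untreated controls after 13–15 d in greenhouse. Pre- and postemergence applications (postemergence plants 2–18 cm, 1–4 leaves); flooded paddy arm at 2-leaf stage. Compounds in non-phytotoxic solvent plus surfactant.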

rice = experiment: Test B flooded paddy test; format: in vivo, Oryza sativa; conditions: 1000 g ai/ha, scale 0 to 100 (0 no effect, 100 complete control)
How it was run: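 Read-out: visual comparison with controls, scored 0 to 100, where 100 means complete control and 0 no effect. Formulated chemicals were applied postemergence to plants 2–18 cm tall (1- to 4-leaf), or to flooded-paddy plants at the 2-leaf stage, then held 13 to 15 days under glass.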

lambsquarters = experiment: Test B pre-/postemergence herbicide test; format: in vivo, Chenopodium album; conditions: for Plant response rating (0 to 100 scale), Lambsquarters: 0 is no effect, 100 is complete control, preemergence; for Lambsquarters plant response rating: scale 0 (no effect) to 100 (complete control)
How it was run: as §1

barnyardgrass [1] = experiment: Test B flooded paddy test; format: in vivo, Echinochloa crus-galli; conditions: 1000 g ai/ha, scale 0 to 100 (0 no effect, 100 complete control)
How it was run: (§2)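 Visual control ratings, 0–100 versus untreated controls, taken after 13 to 15 days in the greenhouse. Blackgrass received a postemergence spray at the 1- to 4-leaf stage (2–18 cm); ducksalad, umbrella sedge and barnyardgrass were flooded-paddy treated at 2 leaves.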

velvetleaf = experiment: Test B pre-/postemergence herbicide test; format: in vivo, Abutilon theophrasti; conditions: for Plant response rating (0 to 100 scale), Velvetleaf: 0 is no effect, 100 is complete control, preemergence; for Velvetleaf plant response rating: scale 0 (no effect) to 100 (complete control)
How it was run: as §1

large crabgrass = experiment: Test B pre-/postemergence herbicide test; format: in vivo, Digitaria sanguinalis; conditions: for Plant response rating (0 to 100 scale), Crabgrass, Large: 0 is no effect, preemergence; for Crabgrass, Large plant response rating: postemergence
How it was run: as §1

cocklebur = experiment: Test B pre-/postemergence herbicide test; format: in vivo, Xanthium strumarium; conditions: for Plant response rating (0 to 100 scale), Cocklebur: 0 is no effect, preemergence; for Cocklebur plant response rating: postemergence
How it was run: (§3)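 Response was scored visually 13 to 15 days after treatment against untreated greenhouse controls, 0 meaning no effect and 100 complete control. Formulations (solvent mixture plus surfactant) went onto soil after planting, onto foliage of 1- to 4-leaf plants, and onto 2-leaf plants in a flooded paddy set including rice and barnyardgrass.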

blackgrass = experiment: Test B postemergence herbicide test; format: in vivo, Alopecurus myosuroides; conditions: postemergence
How it was run: as §2

giant foxtail = experiment: Test B pre-/postemergence herbicide test; format: in vivo, Setaria faberi; conditions: for Plant response rating (0 to 100 scale), Foxtail, Giant: 0 is no effect, preemergence; for Foxtail, Giant plant response rating: postemergence
How it was run: as §1

pigweed = experiment: Test B pre-/postemergence herbicide test; format: in vivo, Amaranthus retroflexus; conditions: for Plant response rating (0 to 100 scale), Pigweed: 0 is no effect, 100 is complete control, preemergence; for Pigweed plant response rating: scale 0 (no effect) to 100 (complete control)
How it was run: as §1

Surinam grass = experiment: Test B pre-/postemergence herbicide test; format: in vivo, Urochloa decumbens; conditions: for Plant response rating (0 to 100 scale), Surinam Grass: 0 is no effect, 100 is complete control, preemergence; for Surinam Grass plant response rating: scale 0 (no effect) to 100 (complete control)
How it was run: as §1

ducksalad = experiment: Test B flooded paddy test; format: in vivo, Heteranthera limosa; conditions: 1000 g ai/ha, scale 0 to 100 (0 no effect, 100 complete control)
How it was run: as §2

morningglory = experiment: Test B pre-/postemergence herbicide test; format: in vivo, Ipomoea coccinea; conditions: for Plant response rating (0 to 100 scale), Morningglory: 0 is no effect, 100 is complete control, preemergence; for Morningglory plant response rating: scale 0 (no effect) to 100 (complete control)
How it was run: as §3

[2] = tested on: small flower umbrella sedge; experiment: Test B flooded paddy test; format: in vivo, Cyperus difformis; conditions: 1000 g ai/ha, scale 0 to 100 (0 no effect, 100 complete control)
How it was run: as §2

wheat = experiment: Test B postemergence herbicide test; format: in vivo, Triticum aestivum; design: key to Wheat plant response rating: 0 = no effect, 100 = complete control
How it was run: (§4)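 Visual ratings, 0 (no effect) to 100 (complete control), made versus controls after 13–15 d greenhouse. Paddy plants treated at 2-leaf stage; postemergence plants at 1- to 4-leaf stage, 2–18 cm tall.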

barnyardgrass [3] = experiment: Test B pre-/postemergence herbicide test; format: in vivo, Echinochloa crus-galli; conditions: for Plant response rating (0 to 100 scale), Barnyardgrass: 0 is no effect, preemergence; for Barnyardgrass plant response rating: postemergence
How it was run: as §3

wild oat = experiment: Test B postemergence herbicide test; format: in vivo, Avena fatua; conditions: scale 0 (no effect) to 100 (complete control)
How it was run: as §4

[4] = 125 g ai/ha, 100 is complete control
[5] = 125 g ai/ha, visual rating, scale 0 (no effect) to 100 (complete control)
[6] = 500 g ai/ha, scale 0 to 100, 0 is no effect, 100 is complete control
[7] = 125 g ai/ha, visual rating, postemergence
[8] = 125 g ai/ha, visual rating, scale 0 (no effect) to 100 (complete control), postemergence
[9] = 500 g ai/ha, scale 0 to 100, 0 no effect, 100 complete control, preemergence
[10] = Postemergence, 500 g ai/ha, scale 0 (no effect) to 100 (complete control)

## CCOC(=O)c1ccc(F)c(NC(=O)c2nn(C(C)(C)CC)nc2CC)c1 [Compound 373]
corn; [4]
  Plant response rating (0 to 100 scale), Corn: 0
corn; [5]
  Corn plant response rating: 0
corn; [6]
  Corn plant response rating: 20
rice
  Rice plant response rating: 0
lambsquarters; 125 g ai/ha
  Plant response rating (0 to 100 scale), Lambsquarters: 0
lambsquarters; [7]
  Lambsquarters plant response rating: 20
lambsquarters; Postemergence, 500 g ai/ha
  Lambsquarters plant response rating: 30
Barnyardgrass [1]
  Barnyardgrass plant response rating: 20
velvetleaf; 125 g ai/ha
  Plant response rating (0 to 100 scale), Velvetleaf: 0
velvetleaf; [7]
  Velvetleaf plant response rating: 20
velvetleaf; Postemergence, 500 g ai/ha
  Velvetleaf plant response rating: 30
Large crabgrass; [4]
  Plant response rating (0 to 100 scale), Crabgrass, Large: 0
Large crabgrass; [5]
  Crabgrass, Large plant response rating: 10
Large crabgrass; [6]
  Crabgrass, Large plant response rating: 10
cocklebur; [4]
  Plant response rating (0 to 100 scale), Cocklebur: 0
cocklebur; [5]
  Cocklebur plant response rating: 10
cocklebur; [6]
  Cocklebur plant response rating: 30
blackgrass; [5]
  Blackgrass plant response rating: 0
blackgrass; [6]
  Blackgrass plant response rating: 10
Giant foxtail; [4]
  Plant response rating (0 to 100 scale), Foxtail, Giant: 0
Giant foxtail; [5]
  Foxtail, Giant plant response rating: 20
Giant foxtail; [6]
  Foxtail, Giant plant response rating: 30
pigweed; 125 g ai/ha
  Plant response rating (0 to 100 scale), Pigweed: 0
pigweed; [7]
  Pigweed plant response rating: 50
pigweed; Postemergence, 500 g ai/ha
  Pigweed plant response rating: 70
Surinam grass; 125 g ai/ha
  Plant response rating (0 to 100 scale), Surinam Grass: 0
Surinam grass; [7]
  Surinam Grass plant response rating: 10
Surinam grass; Postemergence, 500 g ai/ha
  Surinam Grass plant response rating: 20
ducksalad
  Ducksalad plant response rating: 0
morningglory; 125 g ai/ha
  Plant response rating (0 to 100 scale), Morningglory: 0
morningglory; [7]
  Morningglory plant response rating: 20
morningglory; Postemergence, 500 g ai/ha
  Morningglory plant response rating: 20
[2]
  Sedge, Umbrella plant response rating: 20
wheat; [8]
  Wheat plant response rating: 0
wheat; [9]
  Wheat plant response rating: 0
wheat; [10]
  Wheat plant response rating: 10
Barnyardgrass [3]; [4]
  Plant response rating (0 to 100 scale), Barnyardgrass: 0
Barnyardgrass [3]; [5]
  Barnyardgrass plant response rating: 10
Barnyardgrass [3]; [6]
  Barnyardgrass plant response rating: 20
Wild oat; [7]
  Oat, Wild plant response rating: 10
Wild oat; Postemergence, 500 g ai/ha
  Oat, Wild plant response rating: 30

## CCNC(=O)c1ccc(F)c(NC(=O)c2nn(C(C)(C)C)nc2C)c1 [Compound 377]
corn; [4]
  Plant response rating (0 to 100 scale), Corn: 0
corn; [5]
  Corn plant response rating: 0
corn; [6]
  Corn plant response rating: 10
rice
  Rice plant response rating: 40
lambsquarters; 125 g ai/ha
  Plant response rating (0 to 100 scale), Lambsquarters: 0
lambsquarters; [7]
  Lambsquarters plant response rating: 60
lambsquarters; Postemergence, 500 g ai/ha
  Lambsquarters plant response rating: 70
Barnyardgrass [1]
  Barnyardgrass plant response rating: 30
velvetleaf; 125 g ai/ha
  Plant response rating (0 to 100 scale), Velvetleaf: 0
velvetleaf; [7]
  Velvetleaf plant response rating: 20
velvetleaf; Postemergence, 500 g ai/ha
  Velvetleaf plant response rating: 40
Large crabgrass; [4]
  Plant response rating (0 to 100 scale), Crabgrass, Large: 20
Large crabgrass; [5]
  Crabgrass, Large plant response rating: 0
Large crabgrass; [6]
  Crabgrass, Large plant response rating: 0
cocklebur; [4]
  Plant response rating (0 to 100 scale), Cocklebur: 0
cocklebur; [5]
  Cocklebur plant response rating: 0
cocklebur; [6]
  Cocklebur plant response rating: 0
blackgrass; [5]
  Blackgrass plant response rating: 0
blackgrass; [6]
  Blackgrass plant response rating: 0
Giant foxtail; [4]
  Plant response rating (0 to 100 scale), Foxtail, Giant: 0
Giant foxtail; [5]
  Foxtail, Giant plant response rating: 0
Giant foxtail; [6]
  Foxtail, Giant plant response rating: 10
pigweed; 125 g ai/ha
  Plant response rating (0 to 100 scale), Pigweed: 60
pigweed; [7]
  Pigweed plant response rating: 30
Surinam grass; 125 g ai/ha
  Plant response rating (0 to 100 scale), Surinam Grass: 0
Surinam grass; [7]
  Surinam Grass plant response rating: 0
Surinam grass; Postemergence, 500 g ai/ha
  Surinam Grass plant response rating: 10
ducksalad
  Ducksalad plant response rating: 40
morningglory; 125 g ai/ha
  Plant response rating (0 to 100 scale), Morningglory: 0
morningglory; [7]
  Morningglory plant response rating: 0
morningglory; Postemergence, 500 g ai/ha
  Morningglory plant response rating: 60
[2]
  Sedge, Umbrella plant response rating: 80
wheat; [8]
  Wheat plant response rating: 0
wheat; [9]
  Wheat plant response rating: 20
wheat; [10]
  Wheat plant response rating: 0
Barnyardgrass [3]; [4]
  Plant response rating (0 to 100 scale), Barnyardgrass: 0
Barnyardgrass [3]; [5]
  Barnyardgrass plant response rating: 0
Barnyardgrass [3]; [6]
  Barnyardgrass plant response rating: 0
Wild oat; [7]
  Oat, Wild plant response rating: 0
Wild oat; Postemergence, 500 g ai/ha
  Oat, Wild plant response rating: 0
